Read-outs that look alike come from different tables or passages of the source.
How the values were obtained:
MT-2 cells = details: 48 hours
Description: The chemical structures of the compounds are illustrated in FIGS. 1-4. In FIG. 1a, the D- and meso-isomers of L-chicoric acid are identical in this illustrative format. […] The first compound in Table 1, L-chicoric acid, a previously described DCTA, is included for reference. LD5, the 5% lethal dose, is a measure of the toxicity of compound to living, cultured cells. It is the concentration at which cell growth is inhibited by 5%. […] Most simply understood, disintegration is a term used to refer to the reverse of integration.
Cell toxicity and anti-HIV assays were performed as reported above. […] Cells were incubated with drug for 48 hours at 37° C., then harvested for cell viability in a neutral red dye assay as described.

HIVLAI = experiment: Anti-HIV assay, protection from HIV-induced cell death; format: cell-based; details: Human immunodeficiency virus 1, MT2, 72 h, read-out: ED50 (concentration that inhibits HIV-induced cell death by 50%)
Procedure: Anti-HIV assays were performed as described above. […] The compounds were then two-fold serially diluted in triplicate. To each 50 μl of diluted compound, 50 μl of HIVLAI was added and the virus-drug mixture was incubated for 1 hr at 37° C. […] Final multiplicity of infection (MOI) was 1-5. Cells were harvested to quantitate cytopathic effect using a neutral red dye assay as described.

HIV-1 IN = HIV-1 IN (Human immunodeficiency virus type 1 group M subtype B, UniProt P12497); experiment: biochemical
HIVNL4-3 clone 7-1 = format: cell-based, HIV-1; details: for concentration of the drug in the combination with L-CCA giving Fa: NL4-3clone7-1, combined with L-CCA
HIVNL4-3 JF26/A7 = details: for concentration of the drug in the combination with L-CCA giving Fa: NL4-3cloneJF26/A7, combined with L-CCA
Procedure: (§1) For each of these HIV clones, the ED50 was determined for the anti-HIV compounds ZDV, DDC, DDI, the protease inhibitor (PI) Nelfinavir (provided by Agouron Pharmaceuticals, San Diego), and L-CCA.
(§2) Molecular clones of HIV included wild-type HIVNL4-3, HIVNL4-3 M184V, and HIVNL4-3 JF26/A7, All three clones were a generous gift from P. Krogstad (UCLA, Los Angeles, Calif.). Viruses were initially, transfected in adherent HeLa cells using Lipofectin®. After 48 hours, H9 cells were added. Following 24 hours of co-culture, non-adherent cells were removed and cultured. Cells were monitored by indirect immunofluorescence and RT release as described below until the culture was 100% infected by HIV-1. Supernatant fluids were collected and clarified of cells by low-speed centrifugation followed by filtration through 0.45 μm filters.
(§3) Anti-HIV activity of compounds was determined both alone and in combination using a cytopathicity based assay as described above. […] The fifty-percent effective dose (ED50) was calculated for triplicate infections. Mean ED50 (shown in FIG. 5) were calculated for each drug against each HIV variant from a minimum of three experiments performed in triplicate.
(§4) Experiments were designed at a fixed ratio of drugs; the ratio for each drug combination was determined based on the ED50 of each drug alone against each HIV variant. Combination indices were calculated on representative experiments performed in triplicate according to the following formula of Chou and Talalay: fa/fu=(D/Dm)^m
(§5) Where fa is the fraction affected by the dose, fu is the unaffected fraction, D is the dose of the drug, Dm is the median-effect dose determined to be the x-intercept of the median-effect plot, and m is the sigmoidicity of the dose-effect curve, determined by the slope of the median-effect plot. The median effect plot is based on the following equation: log(fa/fu)=^m log (D)−m log (Dm)

HIVNL4-3 M184V = format: cell-based, HIV-1; details: for concentration of the drug in the combination with L-CCA giving Fa: NL4-3cloneM184V, combined with L-CCA; for susceptibility of the clone to the drug alone: clone with methionine to valine mutation in RT
Procedure: as §1, §2, §3, §4, §5

HIV-1NL4-3clone1-D4 = format: cell-based; details: clones 7-1, 7-3 and 1-D4, FIG. 16a
Procedure: Cloning and sequencing of virus from the HIVNL4-3 passaged in the presence of 8 μM L-chicoric acid was undertaken to determine the molecular basis for resistance to L-chicoric acid and to isolate a resistant HIV clone.
This cloning was accomplished through site-directed mutagenesis introducing several silent mutations immediately upstream and downstream of the integrase gene. These mutations generated two unique restriction sites: an upstream SacII and a downstream XbaI (FIG. 15). Introduction of these mutations allowed the entire integrase gene with only minimal upstream and downstream nucleotides to be digested and “swapped” between drug-resistant and drug-sensitive clones.

| SMILES | LD5 (5% lethal dose, concentration at which cell growth is inhibited by 5%) (MT-2 cells) | EC50 (HIVLAI) | IC50 (HIV-1 IN) | concentration of the drug in the combination with L-CCA giving Fa (HIVNL4-3 clone 7-1; Fa 0.2) | concentration of the drug in the combination with L-CCA giving Fa (HIVNL4-3 clone 7-1; Fa 0.4) | concentration of the drug in the combination with L-CCA giving Fa (HIVNL4-3 clone 7-1; Fa 0.6) | concentration of the drug in the combination with L-CCA giving Fa (HIVNL4-3 clone 7-1; Fa 0.8) | concentration of the drug in the combination with L-CCA giving Fa (HIVNL4-3 clone 7-1; Fa 0.9) | concentration of the drug in the combination with L-CCA giving Fa (HIVNL4-3 JF26/A7; Fa 0.2) | concentration of the drug in the combination with L-CCA giving Fa (HIVNL4-3 JF26/A7; Fa 0.4) | concentration of the drug in the combination with L-CCA giving Fa (HIVNL4-3 JF26/A7; Fa 0.6) | concentration of the drug in the combination with L-CCA giving Fa (HIVNL4-3 JF26/A7; Fa 0.8) | concentration of the drug in the combination with L-CCA giving Fa (HIVNL4-3 JF26/A7; Fa 0.9) | concentration of the drug in the combination with L-CCA giving Fa (HIVNL4-3 M184V; Fa 0.2) | concentration of the drug in the combination with L-CCA giving Fa (HIVNL4-3 M184V; Fa 0.4) | concentration of the drug in the combination with L-CCA giving Fa (HIVNL4-3 M184V; Fa 0.6) | concentration of the drug in the combination with L-CCA giving Fa (HIVNL4-3 M184V; Fa 0.8) | concentration of the drug in the combination with L-CCA giving Fa (HIVNL4-3 M184V; Fa 0.9) | further results |
| --- | --- | --- | --- | --- | --- | --- | --- | --- | --- | --- | --- | --- | --- | --- | --- | --- | --- | --- | --- |
| O=C(/C=C/c1ccc(O)c(O)c1)OC[C@H](OC(=O)/C=C/c1ccc(O)c(O)c1)C(=O)O [Compound 19, Dicaffeoyl-L-glyceric acid] | 145 µM | 2300 nM | 520 nM |  |  |  |  |  |  |  |  |  |  |  |  |  |  |  |  |
| O=C(C=Cc1ccc(O)c(O)c1)NCC(NC(=O)C=Cc1ccc(O)c(O)c1)C(=O)O (centres unmarked) [Compound 35, 2-3-dicaffeoyldiamidopropionic acid] | 50 µM | 70000 nM | 570 nM |  |  |  |  |  |  |  |  |  |  |  |  |  |  |  |  |
| O=C(C=Cc1ccc(O)c(O)c1)Nc1ccc(C(=O)O)cc1NC(=O)C=Cc1ccc(O)c(O)c1 [Compound 36, Bis-3,4-dicaffeoyldiamidobenzoic acid] | 47 µM | 4600 nM | 734 nM |  |  |  |  |  |  |  |  |  |  |  |  |  |  |  |  |
| O=C(O)C(=Cc1ccc(O)c(O)c1)C(=Cc1ccc(O)c(O)c1)C(=O)O [Compound 37, Di-3,4-dihydroxybenzylidene succinic acid] | 35 µM | 8700 nM | 2190 nM |  |  |  |  |  |  |  |  |  |  |  |  |  |  |  |  |
| O=C(C=Cc1ccc(O)c(O)c1)NCC(OC(=O)C=Cc1ccc(O)c(O)c1)C(=O)O [Compound 40, Bis-dicaffeoyl-L-isoserine] | 175 µM | 3000 nM | 195 nM |  |  |  |  |  |  |  |  |  |  |  |  |  |  |  |  |
| O=C(C=Cc1ccc(O)c(O)c1)NCCCCC(NC(=O)C=Cc1ccc(O)c(O)c1)C(=O)O [Compound 41, 1,4-dicaffeoyl-L-lysine] | 29.2 µM | 3700 nM | 2230 nM |  |  |  |  |  |  |  |  |  |  |  |  |  |  |  |  |
| Nc1ccn([C@H]2CC[C@@H](CO)O2)c(=O)n1 [DDC, 2′,3′-dideoxycytidine] |  |  |  | 12.4 nM | 21.1 nM | 32.8 nM | 56.0 nM | 87.1 nM | 13.0 nM | 23.8 nM | 39.2 nM | 71.8 nM | 118 nM | 21.6 nM | 43.2 nM | 76.8 nM | 153.7 nM | 273 nM | susceptibility of the clone to the drug alone (HIVNL4-3 clone 7-1; HIVNL4-3 clone 7-1): increased susceptibility; susceptibility of the clone to the drug alone (HIVNL4-3 M184V): partial resistance |
| OC[C@@H]1CC[C@H](n2cnc3c(O)ncnc32)O1 [DDI, 2′,3′-dideoxyinosine] |  |  |  |  |  |  |  |  |  |  |  |  |  |  |  |  |  |  | susceptibility of the clone to the drug alone (HIVNL4-3 M184V): partial resistance |
| Cc1c(O)cccc1C(=O)N[C@@H](CSc1ccccc1)[C@H](O)CN1C[C@H]2CCCC[C@H]2C[C@H]1C(=O)NC(C)(C)C [Nelfinavir] |  |  |  | 2.9 nM | 4.9 nM | 7.6 nM | 13.1 nM | 20.3 nM | 4.6 nM | 7.0 nM | 10.0 nM | 15.1 nM | 21.3 nM | 2.5 nM | 4.7 nM | 7.9 nM | 14.8 nM | 24.8 nM |  |
| Cc1cn([C@H]2C[C@H](N=[N+]=[N-])[C@@H](CO)O2)c(=O)[nH]c1=O [Zidovudine, zidovudine] |  |  |  | 2.7 nM | 8.7 nM | 22.9 nM | 73.8 nM | 194 nM | 150.2 nM | 259.8 nM | 409 nM | 707 nM | 1112 nM | 4.9 nM | 10.2 nM | 18.9 nM | 39.6 nM | 73 nM | susceptibility of the clone to the drug alone (HIVNL4-3 JF26/A7; HIVNL4-3 JF26/A7): highly resistant; sensitivity of the clones to the drug compared with parental HIVNL4-3 (HIV-1NL4-3clone1-D4): same sensitivity |
